In PubChem BioAssay AID1963852 (Molecular Pharmacology Branch, DTP, NCI, 2024):
Where “and” joins values, the source holds several entries; their conditions need not be identical. Equal values may be shown once.

Test system: 282377-053-R-J1-PDC complex spheroid viability
Test: Anticancer human tumor 282377-053-R-J1-PDC patient-derived colon adenocarcinoma cell line growth inhibition [POLQ]
Settings: for viability, T/C: stronger effect = lower value
Method: Multicellular complex tumor spheroid response to Polymerase (POL) inhibitors (novobiocin, ART-558, RP6685) in combination with a variety of drugs and investigational agents in selected tumor cell lines
The POL inhibitors (novobiocin, ART-558, and RP6685) were evaluated both individually and in combination with standard of care and investigational anticancer small molecules within a complex spheroid model of solid tumors. . Complex spheroids include a stromal component modeled by human endothelial cells (HUVEC) and fibroblasts modeled by human mesenchymal stem cells (MSCs). The concentration ranges selected for each drug and investigational agent were based upon clinically achievable concentrations if the clinical Cmax of the agent was known.
Compounds. The drugs and investigational agents: novobiocin (NSC847541), ART-558 (NSC835418), RP-6685 (NSC848927), peposertib (NSC802822), ceralasertib (NSC780249), elimusertib (NSC800525), camonsertib (NSC841442), AZD-1390 (NSC803789), olaparib (NSC753686), talazoparib (NSC767125), rucaparib (NSC756644), sotorasib (NSC818433), MRTX-1133 (NSC836407), SN-38 (NSC673596), topotecan (NSC609699), epotoside (NSC141540), doxorubicin (NSC123127), gemcitabine (NSC613327), 5-fluorouracil (NSC19893), paclitaxel (NSC125973), vemurafenib (NSC761431), MSA-2 (NSC828583), SN-011 (NSC837082), adavosertib (NSC754352), prexasertib (NSC758257), carboplatin (NSC241240) and oxaliplatin (NSC266046), were obtained from the National Cancer Institute (NCI) Developmental Therapeutics Program Chemical Repository (21). The FDA-approved anticancer drug set is available from the Developmental Therapeutics Program at https://dtp.cancer.gov/organization/dscb/obtaining/. […] The stock solutions were prepared in dimethyl sulfoxide (DMSO, Sigma-Aldrich, St. Louis, MO, cat. D2650), except for the platinum compounds which were prepared in saline (Quality Biological, Gaithersburg, MD, cat. 114-055-101), at 800-fold the tested concentration and stored at -70 degrees C prior to their use. All drugs and investigational agents were tested over a range starting from a high concentration at or near the clinical Cmax and decreasing in half-log increments. If the clinical Cmax for an agent had not been determined, the highest concentration tested was 10 microM, except for SN-38, which was tested at a high concentration of 1 microM.
Cell Culture. All cells were maintained in an incubator at 37 degrees C and 5% CO2 with 95% humidity. The PDC lines were cultured according to standard operating procedures established by the NCI PDMR (https://pdmr.cancer.gov). Table 3 of the manuscript, lists the cell lines along with the number of the three cell types plated to form the mct-spheroids and media for tumor cell growth. After thawing, all PDC lines, except 997537-175-T-J1-PDC and 415267-285-R-J2-PDC, were cultured in Matrigel-coated flasks prepared with a working solution of 1X Ham's F-12 nutrient mix, without supplementation (Thermo Fisher Scientific, cat. 11765054), 100 U/mL penicillin-streptomycin (Thermo Fisher Scientific, cat. 15140122), and 2.5% Matrigel (Corning Inc., Corning, NY, cat. 354248) for the first three passages. The two PDC lines 997537-175-T-J1-PDC and 415267-285-R-J2-PDC were cultured on uncoated flasks. The 857933-349-R-J2-PDC line was cultured in 6C/Colon 1B media containing advanced DMEM/F-12 (Thermo Fisher Scientific, cat. 12634028), 10 mM HEPES (Thermo Fisher Scientific, cat. 15630080), 1X GlutaMAX supplement (Thermo Fisher Scientific, cat. 35050061), 0.1 mg/mL primocin (InvivoGen, San Diego, CA, cat. ant-pm-2), 10% defined fetal bovine serum, heat inactivated (HyClone Laboratories Inc., Logan, UT, cat. SH30070.03HI), 50% L-WRN conditioned media (ATCC, cat. CRL-3276), 1.25 mM N-Acetyl-L-cysteine (Sigma-Aldrich, cat. A9165), 10 mM nicotinamide (Sigma-Aldrich, cat. N0636), 1X B-27 supplement (Thermo Fisher Scientific, cat. 17504044), 1X N-2 supplement (Thermo Fisher Scientific, cat. […]
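Note: spheroids exposed to compounds for seven days.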
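Throughout, for viability, T/C: 100% = DMSO vehicle control viability.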

O=c1[nH]cc(F)c(=O)[nH]1 + COC1C(OC(N)=O)C(O)C(Oc2ccc3c(O)c(NC(=O)c4ccc(O)c(CC=C(C)C)c4)c(=O)oc3c2C)OC1(C)C
IC50 (curve of first compound, second compound 0.0316 µM): > 10000 nM | IC50 (curve of first compound, second compound 0.1 µM): > 10000 nM | IC50 (curve of first compound, second compound 0.316 µM): > 10000 nM | IC50 (curve of first compound, second compound 1 µM): > 10000 nM | IC50 (curve of first compound, second compound 3.16 µM): > 10000 nM | IC50 (curve of first compound, second compound 10 µM): > 10000 nM | viability, T/C (second compound 0.0316 µM, first compound 0.0316 µM): 112% | viability, T/C (second compound 0.0316 µM, first compound 0.1 µM): 89% | viability, T/C (second compound 0.0316 µM, first compound 0.316 µM): 104% | viability, T/C (second compound 0.0316 µM, first compound 1 µM): 92% | viability, T/C (second compound 0.0316 µM, first compound 3.16 µM): 74.6% | viability, T/C (second compound 0.0316 µM, first compound 10 µM): 66.9% | viability, T/C (second compound 0.1 µM, first compound 0.0316 µM): 109% | viability, T/C (second compound 0.1 µM, first compound 0.1 µM): 107% | viability, T/C (second compound 0.1 µM, first compound 0.316 µM): 90.9% | viability, T/C (second compound 0.1 µM, first compound 1 µM): 89.7% | viability, T/C (second compound 0.1 µM, first compound 3.16 µM): 72.1% | viability, T/C (second compound 0.1 µM, first compound 10 µM): 71% | viability, T/C (second compound 0.316 µM, first compound 0.0316 µM): 112% | viability, T/C (second compound 0.316 µM, first compound 0.1 µM): 125% | viability, T/C (second compound 0.316 µM, first compound 0.316 µM): 97.1% | viability, T/C (second compound 0.316 µM, first compound 1 µM): 81.5% | viability, T/C (second compound 0.316 µM, first compound 3.16 µM): 77.7% | viability, T/C (second compound 0.316 µM, first compound 10 µM): 71.1% | viability, T/C (second compound 1 µM, first compound 0.0316 µM): 112% | viability, T/C (second compound 1 µM, first compound 0.1 µM): 97.9% | viability, T/C (second compound 1 µM, first compound 0.316 µM): 94.4% | viability, T/C (second compound 1 µM, first compound 1 µM): 86.4% | viability, T/C (second compound 1 µM, first compound 3.16 µM): 79.6% | viability, T/C (second compound 1 µM, first compound 10 µM): 71.2% | viability, T/C (second compound 3.16 µM, first compound 0.0316 µM): 102% | viability, T/C (second compound 3.16 µM, first compound 0.1 µM): 101% | viability, T/C (second compound 3.16 µM, first compound 0.316 µM): 88.1% | viability, T/C (second compound 3.16 µM, first compound 1 µM): 100% | viability, T/C (second compound 3.16 µM, first compound 3.16 µM): 80.7% | viability, T/C (second compound 3.16 µM, first compound 10 µM): 66.8% | viability, T/C (second compound 10 µM, first compound 0.0316 µM): 105% | viability, T/C (second compound 10 µM, first compound 0.1 µM): 103% | viability, T/C (second compound 10 µM, first compound 0.316 µM): 115% | viability, T/C (second compound 10 µM, first compound 1 µM): 98% | viability, T/C (second compound 10 µM, first compound 3.16 µM): 82.2% | viability, T/C (second compound 10 µM, first compound 10 µM): 63.5%

CC[C@@]1(O)C(=O)OCc2c1cc1n(c2=O)Cc2cc3c(CN(C)C)c(O)ccc3nc2-1
viability, T/C (compound 0.000316 µM): 98.9% and 101% and 105% | viability, T/C (compound 0.001 µM): 93.9% and 102% and 98.8% | viability, T/C (compound 0.00316 µM): 77% and 92.2% and 116% | viability, T/C (compound 0.01 µM): 119% and 104% and 94.3% | viability, T/C (compound 0.0316 µM): 98.5% and 97.7% and 86.9% | viability, T/C (compound 0.1 µM): 81.5% and 110% and 76.7% | IC50 (curve of compound): > 100 nM

C=CC(=O)N1CCN(c2nc(=O)n(-c3c(C)ccnc3C(C)C)c3nc(-c4c(O)cccc4F)c(F)cc23)C(C)C1 (stereo unspecified)
viability, T/C (compound 0.0316 µM): 90.8% and 111% and 101% | viability, T/C (compound 0.1 µM): 96% and 93.3% and 101% | viability, T/C (compound 0.316 µM): 82.7% and 111% and 107% | viability, T/C (compound 1 µM): 82.8% and 111% and 110% | viability, T/C (compound 3.16 µM): 94% and 105% and 101% | viability, T/C (compound 10 µM): 78.2% and 87% and 86.5% | IC50 (curve of compound): > 10000 nM

O=C(Nc1ccc(O)c(NS(=O)(=O)c2ccc(F)cc2)c1)c1ccc(-c2ccccc2)cc1
viability, T/C (compound 0.0316 µM): 110% and 91.2% and 91.8% | viability, T/C (compound 0.1 µM): 98.8% and 86.6% and 102% | viability, T/C (compound 0.316 µM): 108% and 92.9% and 112% | viability, T/C (compound 1 µM): 113% and 95.5% and 102% | viability, T/C (compound 3.16 µM): 116% and 112% and 121% | viability, T/C (compound 10 µM): 116% (2×) and 109% | IC50 (curve of compound): > 10000 nM

Cn1ncnc1[C@H]1c2n[nH]c(=O)c3cc(F)cc(c23)N[C@@H]1c1ccc(F)cc1
viability, T/C (compound 0.000316 µM): 97.4% and 91% and 104% | viability, T/C (compound 0.001 µM): 95.4% and 95.3% and 93.1% | viability, T/C (compound 0.00316 µM): 76.2% and 90.7% and 93.6% | viability, T/C (compound 0.01 µM): 108% (2×) and 102% | viability, T/C (compound 0.0316 µM): 110% and 98.3% and 105% | viability, T/C (compound 0.1 µM): 90.5% and 95.2% and 106% | IC50 (curve of compound): > 100 nM

O=C(c1cc(Cc2n[nH]c(=O)c3ccccc23)ccc1F)N1CCN(C(=O)C2CC2)CC1
viability, T/C (compound 0.0316 µM): 96.2% and 95.6% and 96.1% | viability, T/C (compound 0.1 µM): 94.5% and 97.4% and 107% | viability, T/C (compound 0.316 µM): 118% and 105% and 95.8% | viability, T/C (compound 1 µM): 122% and 110% and 114% | viability, T/C (compound 3.16 µM): 100% and 97.5% and 110% | viability, T/C (compound 10 µM): 95.8% and 105% and 110% | IC50 (curve of compound): > 10000 nM

COc1cccc2c1C(=O)c1c(O)c3c(c(O)c1C2=O)CC(O)(C(=O)CO)CC3OC1CC(N)C(O)C(C)O1 (stereo unspecified)
viability, T/C (compound 0.0316 µM): 98.8% and 96% and 104% | viability, T/C (compound 0.1 µM): 83.9% and 92.9% and 87.7% | viability, T/C (compound 0.316 µM): 62.9% and 125% and 50.8% | viability, T/C (compound 1 µM): 17.3% and 111% and 20.5% | viability, T/C (compound 3.16 µM): 0.93% and 18.7% and 1.37% | viability, T/C (compound 10 µM): 2.95% and 3.23% and 2.45% | IC50 (curve of compound): 421 nM and 2090 nM and 336 nM

CC1COCCN1c1cc(-c2ccnn2C)c2ccnc(-c3ccn[nH]3)c2n1 (stereo unspecified)
viability, T/C (compound 0.0316 µM): 93.1% and 105% and 77.6% | viability, T/C (compound 0.1 µM): 67.1% and 76.9% and 73.5% | viability, T/C (compound 0.316 µM): 55.3% and 44.6% and 61.7% | viability, T/C (compound 1 µM): 37.6% and 31.7% and 57.4% | viability, T/C (compound 3.16 µM): 35.6% and 27.5% and 46% | viability, T/C (compound 10 µM): 25.1% and 22.8% and 38.4% | IC50 (curve of compound): 406 nM and 270 nM and 2090 nM
